According to PMC11394167, “Purification and Identification of Novel Dipeptidyl Peptidase IV Inhibitory Peptides Derived from Bighead Carp (Hypophthalmichthys nobilis)” (Foods, 2024):
Read-outs that look alike come from different tables or passages of the source. Where a SMILES comes first, the peptide text is derived from it.

Legend:
[1] = biological target: T1, DPP-IV (Homo sapiens, UniProt P27487); assay: DPP-IV inhibitor screening assay (KA1311 kit, Gly-Pro-AMC); type: biochemical; details: synthetic peptides; 37 °C, 30 min; Gly-Pro-AMC substrate; fluorescence ex 350 nm / em 460 nm; mean ± standard deviation (n = 3); read-out: IC50 (DPP-IV inhibition)
T1 construct: purchased Abnova KA1311
T1 sequence (P27487 whole entry): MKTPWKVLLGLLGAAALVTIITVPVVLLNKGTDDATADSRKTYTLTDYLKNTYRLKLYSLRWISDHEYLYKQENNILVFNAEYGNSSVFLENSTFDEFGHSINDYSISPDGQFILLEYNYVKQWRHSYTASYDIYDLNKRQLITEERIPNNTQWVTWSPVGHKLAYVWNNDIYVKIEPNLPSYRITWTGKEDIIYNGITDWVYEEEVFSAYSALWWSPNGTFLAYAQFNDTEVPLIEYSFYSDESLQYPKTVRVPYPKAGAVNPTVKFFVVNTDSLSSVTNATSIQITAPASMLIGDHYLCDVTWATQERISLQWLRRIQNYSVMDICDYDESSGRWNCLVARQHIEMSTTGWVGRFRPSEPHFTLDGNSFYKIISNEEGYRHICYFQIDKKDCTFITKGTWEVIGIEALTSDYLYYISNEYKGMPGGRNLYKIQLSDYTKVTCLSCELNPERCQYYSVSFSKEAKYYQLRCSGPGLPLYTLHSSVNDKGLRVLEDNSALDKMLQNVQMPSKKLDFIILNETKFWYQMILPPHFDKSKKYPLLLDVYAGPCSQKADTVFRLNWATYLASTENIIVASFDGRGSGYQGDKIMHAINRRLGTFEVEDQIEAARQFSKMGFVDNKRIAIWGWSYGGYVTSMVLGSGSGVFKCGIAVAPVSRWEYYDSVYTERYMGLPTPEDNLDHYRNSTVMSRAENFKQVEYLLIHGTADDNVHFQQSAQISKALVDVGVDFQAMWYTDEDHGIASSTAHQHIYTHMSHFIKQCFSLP
Procedure: The DPP-IV inhibition rate and the corresponding IC50 of each component were determined using the DPP-IV inhibitor screening assay kit (KA1311, Abnova, Taipei, Taiwan, China). For each component, extracts were mixed with buffer solution at various concentrations (1 mg/mL, 0.1 mg/mL, 0.05 mg/mL, 0.01 mg/mL), DPP-IV, and the substrate (Gly-Pro-AMC solution) in 96-well plates. The reaction was conducted at the normal human body temperature of 37 °C for 30 min. Free AMC (7-amino-4-methylcoumarin) was quantified using a multifunctional fluorescent zymography assay, with excitation light at 350 nm and emission light at 460 nm, and expressed as fluorescence intensity. The positive control utilized was 1 μg/mL of […]. A standard curve for all inhibition rates was plotted, and the maximum half inhibitory concentration (IC50) value of each peptide was determined using GraphPad Prism 9.5.1. DPP-IV inhibition (%) = {(F initial activity − F sample)/F initial activity} × 100%(2)
The DPP-IV inhibitory activity assay was performed in three parallel groups, and IC50 data were expressed as the mean ± standard deviation (S.D.). Data were analyzed using SPSS 20.0 software (SPSS Inc., Chicago, IL, USA) for unifactorial and bifactorial analyses, and the significance of the data was indicated by p < 0.05.

[2] = biological target: T1, DPP-IV; assay: DPP-IV inhibition pattern (Lineweaver–Burk plots); type: biochemical; details: substrate 20, 15, 10, 5, 1 μM, peptide greater than IC50, less than IC50, and 0
Procedure: The pattern of DPP4 inhibition of synthetic peptides was further analyzed using Lineweaver–Burk plots. Images were plotted at different concentrations of substrates (20, 15, 10, 5, 1 μM) and peptide solution (concentration was greater than IC50, less than IC50, and 0) with 1/[S] as the X-value and 1/V as the Y-value. The mode of inhibition of DPP-IV by the synthetic peptide was determined based on the intercept of the Lineweaver–Burk curve.

[3] = side effects such as nausea; cited from earlier work
Description: (§1) Diabetes is a chronic disease marked by high blood sugar levels and disruptions in fat and protein metabolism due to insulin resistance and deficiency. It is categorized into three types: type 1, type 2, and gestational diabetes. As reported by the International Diabetes Federation (IDF), approximately 537 million adults (aged 20–79 years) were living with diabetes in 2021, a number expected to rise to 700 million by 2045 [7]. Type 2 diabetes mellitus (T2DM) constitutes about 90% of these cases. Without treatment, T2DM can lead to severe complications such as coronary issues, retinopat ...

[4] = biological target: T1, DPP-IV; details: cited from earlier work
Description: as §1, with “... || The results of mass spectrometry identification guided the screening of peptide sequences based on certain criteria. […] In the current landscape of research aiming to identify DPP-IV inhi ...” for “...”

Compound: CC(C)[C@H](NC(=O)[C@@H](N)Cc1ccccc1)C(=O)N[C@@H](C)C(=O)O [FVA] (H-Phe-Val-Ala-OH)
- IC50 [1]: 0.402 ± 0.00528 µM
- effect on Km [2]: increased Km

Compound: CN(C)C(=N)N=C(N)N [Metformin]
- patients suffering from side effects [3]: around 30%

Compound: CC(C)C[C@H](NC(=O)CNC(=O)[C@@H]1CCCN1)C(=O)N[C@H](C(=O)NCC(=O)O)C(C)C [PGLVG] (H-PGLVG-OH)
- IC50 [1]: 0.11 ± 0.0431 µM
- effect on Km [2]: Km is increased

Compound: O=C(CNC(=O)[C@@H]1CCCN1C(=O)[C@@H]1CCCN1)N[C@@H](Cc1ccccc1)C(=O)O [PPGF] (H-PPGF-OH)
- IC50 [1]: 0.00463 ± 0.00156 µM

Compound: CC(C)[C@H](N)C(=O)N[C@@H](Cc1ccc(O)cc1)C(=O)N1CCC[C@H]1C(=O)O [VYP] (H-Val-Tyr-Pro-OH)
- IC50 [1]: 0.399 ± 0.0474 µM

Compound: GPAG [peptide (300.4 Da) from pig skin gelatin hydrolysate]
- IC50 ([4]; peptides from pig skin gelatin hydrolysate): 41.9 µM

Compound: IPSK
- DPP-IV inhibitory effect ([4]; peptides from milk proteins): DPP-IV inhibitory effects

Compound: WGDEHIPGSPYH [previously reported peptide from silver carp]
- IC50 ([4]; from silver carp): 350 µM

Compound: YPFPGP [previously reported peptide extracted from milk]
- IC50 ([4]; extracted from milk): 749 µM

Compound: YYGYTGAFR [previously reported peptide from Atlantic salmon]
- IC50 ([4]; from Atlantic salmon): 1100 µM
